US4508663A, “Process for preparing thiosulfenamide derivatives of N-phosphonomethylglycinonitriles” (Monsanto Company, priority 1983, dated 1985)

Columns and labels:
Test in all cases: post-emergence herbicidal activity, greenhouse
Type in all cases: in vivo
Wild Buckwheat = conditions: Table II, 4 WAT
Outline: (§1)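 Plants grown from seed or perennial propagules in greenhouse soil pans were sprayed at two to three weeks with compound solution or suspension containing about 0.4% emulsifier, at the stated application rates. Injury relative to untreated controls was scored at approximately two and four weeks after treatment on a post-emergence activity index.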

Barnyardgrass = conditions: 4 WAT
Outline: as §1

Wheat = conditions: Table II, 4 WAT
Outline: as §1

Panicum Spp = conditions: Table II, 4 WAT
Outline: as §1

Morningglory = conditions: 4 WAT
Outline: as §1

Velvetleaf = conditions: 4 WAT
Outline: as §1

Downy Brome = conditions: 4 WAT
Outline: as §1

Lambsquarters = conditions: 4 WAT
Outline: as §1

Sorghum = conditions: Table II, 4 WAT
Outline: as §1

Smartweed = conditions: 4 WAT
Outline: as §1

Yellow Nutsedge = conditions: Table I, 4 WAT
Outline: as §1

Soybean = conditions: Table II, 4 WAT
Outline: as §1

Cocklebur = conditions: 4 WAT
Outline: as §1

Canada Thistle = conditions: Table I, 4 WAT
Outline: as §1

Sugar Beet = conditions: Table II, 4 WAT
Outline: as §1

Crabgrass = conditions: Table II, 4 WAT
Outline: as §1

Rice = conditions: Table II, 4 WAT
Outline: as §1

Quackgrass = conditions: Table I, 4 WAT
Outline: as §1

Hemp Sesbania = conditions: Table II, 4 WAT
Outline: as §1

Johnsongrass = conditions: Table I, 4 WAT
Outline: as §1

CC(C)CCSSN(CC#N)CP(=O)(Oc1ccccc1)Oc1ccccc1 [V, Phosphonic acid, [[(cyanomethyl)[(3-methylbutyl)-dithio]amino]methyl]-, diphenyl ester]
post-emergence herbicidal activity index (Wild Buckwheat; 1.12 kg/h): 0 (0-24% control) | post-emergence herbicidal activity index (Wild Buckwheat; 5.6 kg/h): 1 (25-49% control) | post-emergence herbicidal activity index (Barnyardgrass; Table I, 5.6 kg/h): 2 (50-74% control) | post-emergence herbicidal activity index (Barnyardgrass; Table I, 11.2 kg/h): 3 (75-99% control) | post-emergence herbicidal activity index (Barnyardgrass; Table II, 1.12 kg/h): 1 (25-49% control) | post-emergence herbicidal activity index (Barnyardgrass; Table II, 5.6 kg/h): 3 (75-99% control) | post-emergence herbicidal activity index (Wheat; 1.12 kg/h): 0 (0-24% control) | post-emergence herbicidal activity index (Wheat; 5.6 kg/h): 1 (25-49% control) | post-emergence herbicidal activity index (Panicum Spp; 1.12 kg/h): 0 (0-24% control) | post-emergence herbicidal activity index (Panicum Spp; 5.6 kg/h): 1 (25-49% control) | post-emergence herbicidal activity index (Morningglory; Table I, 5.6 kg/h): 2 (50-74% control) | post-emergence herbicidal activity index (Morningglory; Table I, 11.2 kg/h): 2 (50-74% control) | post-emergence herbicidal activity index (Morningglory; Table II, 1.12 kg/h): 1 (25-49% control) | post-emergence herbicidal activity index (Morningglory; Table II, 5.6 kg/h): 2 (50-74% control) | post-emergence herbicidal activity index (Velvetleaf; Table I, 5.6 kg/h): 1 (25-49% control) | post-emergence herbicidal activity index (Velvetleaf; Table I, 11.2 kg/h): 0 (0-24% control) | post-emergence herbicidal activity index (Velvetleaf; Table II, 1.12 kg/h): 0 (0-24% control) | post-emergence herbicidal activity index (Velvetleaf; Table II, 5.6 kg/h): 2 (50-74% control) | post-emergence herbicidal activity index (Downy Brome; Table I, 5.6 kg/h): 2 (50-74% control) | post-emergence herbicidal activity index (Downy Brome; Table I, 11.2 kg/h): 2 (50-74% control) | post-emergence herbicidal activity index (Downy Brome; Table II, 1.12 kg/h): 2 (50-74% control) | post-emergence herbicidal activity index (Downy Brome; Table II, 5.6 kg/h): 2 (50-74% control) | post-emergence herbicidal activity index (Lambsquarters; Table I, 5.6 kg/h): 4 (100% control) | post-emergence herbicidal activity index (Lambsquarters; Table I, 11.2 kg/h): 3 (75-99% control) | post-emergence herbicidal activity index (Lambsquarters; Table II, 1.12 kg/h): 1 (25-49% control) | post-emergence herbicidal activity index (Lambsquarters; Table II, 5.6 kg/h): 3 (75-99% control) | post-emergence herbicidal activity index (Sorghum; 1.12 kg/h): 2 (50-74% control) | post-emergence herbicidal activity index (Sorghum; 5.6 kg/h): 3 (75-99% control) | post-emergence herbicidal activity index (Smartweed; Table I, 5.6 kg/h): 1 (25-49% control) | post-emergence herbicidal activity index (Smartweed; Table I, 11.2 kg/h): 3 (75-99% control) | post-emergence herbicidal activity index (Smartweed; Table II, 1.12 kg/h): 0 (0-24% control) | post-emergence herbicidal activity index (Smartweed; Table II, 5.6 kg/h): 1 (25-49% control) | post-emergence herbicidal activity index (Yellow Nutsedge; 5.6 kg/h): 2 (50-74% control) | post-emergence herbicidal activity index (Yellow Nutsedge; 11.2 kg/h): 2 (50-74% control) | post-emergence herbicidal activity index (Soybean; 1.12 kg/h): 1 (25-49% control) | post-emergence herbicidal activity index (Soybean; 5.6 kg/h): 2 (50-74% control) | post-emergence herbicidal activity index (Cocklebur; Table I, 5.6 kg/h): 2 (50-74% control) | post-emergence herbicidal activity index (Cocklebur; Table I, 11.2 kg/h): 3 (75-99% control) | post-emergence herbicidal activity index (Cocklebur; Table II, 1.12 kg/h): 1 (25-49% control) | post-emergence herbicidal activity index (Cocklebur; Table II, 5.6 kg/h): 3 (75-99% control) | post-emergence herbicidal activity index (Canada Thistle; 5.6 kg/h): 2 (50-74% control) | post-emergence herbicidal activity index (Canada Thistle; 11.2 kg/h): 1 (25-49% control) | post-emergence herbicidal activity index (Sugar Beet; 1.12 kg/h): 1 (25-49% control) | post-emergence herbicidal activity index (Sugar Beet; 5.6 kg/h): 1 (25-49% control) | post-emergence herbicidal activity index (Crabgrass; 1.12 kg/h): 1 (25-49% control) | post-emergence herbicidal activity index (Crabgrass; 5.6 kg/h): 3 (75-99% control) | post-emergence herbicidal activity index (Rice; 1.12 kg/h): 0 (0-24% control) | post-emergence herbicidal activity index (Rice; 5.6 kg/h): 1 (25-49% control) | post-emergence herbicidal activity index (Quackgrass; 5.6 kg/h): 1 (25-49% control) | post-emergence herbicidal activity index (Quackgrass; 11.2 kg/h): 2 (50-74% control) | post-emergence herbicidal activity index (Hemp Sesbania; 1.12 kg/h): 0 (0-24% control) | post-emergence herbicidal activity index (Hemp Sesbania; 5.6 kg/h): 1 (25-49% control) | post-emergence herbicidal activity index (Johnsongrass; 5.6 kg/h): 1 (25-49% control) | post-emergence herbicidal activity index (Johnsongrass; 11.2 kg/h): 3 (75-99% control)
